Source: PubChem BioAssay (NCI)
Values joined by “and” are separate entries in the source; they are usually repeats but may differ in a detail not shown here. Identical values can stand only once.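 96-well plates; 48 h exposure; 5 concentrations. Endpoints by linear interpolation between flanking doses. Not reached: highest tested concentration assigned. GI50 is the concentration that inhibits growth by half. TGI denotes the concentration required for complete inhibition of growth.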

What was measured:
Assay in all cases: NCI tumour cell line growth inhibition, 48 h
TK-10 renal = tested on: TK-10 renal
XF 498 CNS = tested on: XF 498 CNS
SW-620 colon = tested on: SW-620 colon
SK-MEL-28 melanoma = tested on: SK-MEL-28 melanoma
COLO 205 colon = tested on: COLO 205 colon
UACC-257 melanoma = tested on: UACC-257 melanoma
NCI-H460 lung = tested on: NCI-H460 lung
U251 CNS = tested on: U251 CNS
HT29 colon = tested on: HT29 colon
SF-295 CNS = tested on: SF-295 CNS
786-0 renal = tested on: 786-0 renal
HOP-92 NSCLC = tested on: HOP-92 NSCLC
NCI-H522 lung = tested on: NCI-H522 lung
PC-3 prostate = tested on: PC-3 prostate
KM20L2 colon = tested on: KM20L2 colon
CCRF-CEM leukemia = tested on: CCRF-CEM leukemia
SNB-75 CNS = tested on: SNB-75 CNS
P388 leukemia = tested on: P388 leukemia
HS 578T breast = tested on: HS 578T breast
UO-31 renal = tested on: UO-31 renal
HCT-116 colon = tested on: HCT-116 colon
MALME-3M melanoma = tested on: MALME-3M melanoma
IGROV1 ovarian = tested on: IGROV1 ovarian
RXF 393 renal = tested on: RXF 393 renal
LOX IMVI melanoma = tested on: LOX IMVI melanoma
HOP-18 NSCLC = tested on: HOP-18 NSCLC
BT-549 breast = tested on: BT-549 breast
ACHN renal = tested on: ACHN renal
HCC-2998 colon = tested on: HCC-2998 colon
DMS 273 small cell lung = tested on: DMS 273 small cell lung
OVCAR-4 ovarian = tested on: OVCAR-4 ovarian
NCI-H226 lung = tested on: NCI-H226 lung
K-562 leukemia = tested on: K-562 leukemia
M19-MEL melanoma = tested on: M19-MEL melanoma
HCT-15 colon = tested on: HCT-15 colon
SK-OV-3 ovarian = tested on: SK-OV-3 ovarian
MDA-N = tested on: MDA-N
OVCAR-8 ovarian = tested on: OVCAR-8 ovarian
HOP-62 NSCLC = tested on: HOP-62 NSCLC
EKVX NSCLC = tested on: EKVX NSCLC
NCI-H23 lung = tested on: NCI-H23 lung
KM12 colon = tested on: KM12 colon
SF-539 CNS = tested on: SF-539 CNS
P388/ADR leukemia = tested on: P388/ADR leukemia
M14 melanoma = tested on: M14 melanoma
SF-268 CNS = tested on: SF-268 CNS
MOLT-4 leukemia = tested on: MOLT-4 leukemia
OVCAR-3 ovarian = tested on: OVCAR-3 ovarian
MCF7 breast = tested on: MCF7 breast
DMS 114 small cell lung = tested on: DMS 114 small cell lung
SR leukemia = tested on: SR leukemia
A498 renal = tested on: A498 renal
DLD-1 colon = tested on: DLD-1 colon
DU-145 prostate = tested on: DU-145 prostate
SN12C renal = tested on: SN12C renal
UACC-62 melanoma = tested on: UACC-62 melanoma
MDA-MB-231 breast = tested on: MDA-MB-231 breast
SNB-19 CNS = tested on: SNB-19 CNS
SK-MEL-2 melanoma = tested on: SK-MEL-2 melanoma
A549 NSCLC = tested on: A549 NSCLC
SNB-78 CNS = tested on: SNB-78 CNS
MDA-MB-435 = tested on: MDA-MB-435
NCI/ADR-RES ovarian = tested on: NCI/ADR-RES ovarian
SN12K1 renal = tested on: SN12K1 renal
T-47D breast = tested on: T-47D breast
HL-60(TB) leukemia = tested on: HL-60(TB) leukemia
OVCAR-5 ovarian = tested on: OVCAR-5 ovarian
SK-MEL-5 melanoma = tested on: SK-MEL-5 melanoma
RPMI-8226 leukemia = tested on: RPMI-8226 leukemia
LXFL 529 NSCLC = tested on: LXFL 529 NSCLC
RXF-631 renal = tested on: RXF-631 renal

## COC1C(O)C(C)OC(OC2C(Oc3cccc4c(O)c5c(=O)oc6ccc(C)c7c(=O)oc(c34)c5c67)OC(C)C(O)C2O)C1O (stereo not given)
TK-10 renal
  TGI: 21 µM
XF 498 CNS
  TGI: 3.37 µM
SW-620 colon
  GI50: 1.28 µM
  TGI: 63.8 µM and 20.5 µM
SK-MEL-28 melanoma
  GI50: 1.87 µM
  TGI: 6.85 µM and 4.93 µM
COLO 205 colon
  GI50: 1.74 µM
  TGI: 16 µM and 6.3 µM
UACC-257 melanoma
  TGI: 5.85 µM and 5.46 µM
NCI-H460 lung
  TGI: 9.07 µM and 13.1 µM
U251 CNS
  GI50: 0.543 µM
  TGI: 11.9 µM
HT29 colon
  GI50: 1.94 µM
  TGI: 13.8 µM
SF-295 CNS
  GI50: 1.12 µM
  TGI: 11.9 µM and 4.21 µM
786-0 renal
  TGI: 4.57 µM
HOP-92 NSCLC
  GI50: 2.43 µM
NCI-H522 lung
  GI50: 0.747 µM
  TGI: 2.74 µM and 3.67 µM
PC-3 prostate
  TGI: 17.8 µM
KM20L2 colon
  TGI: 18.5 µM
CCRF-CEM leukemia
  TGI: 14.4 µM and 5.06 µM
SNB-75 CNS
  GI50: 3.15 µM
  TGI: 12.6 µM and 7.14 µM
P388 leukemia
  TGI: 3.48 µM
HS 578T breast
  TGI: 20.4 µM
UO-31 renal
  TGI: 36.5 µM and 18.9 µM
HCT-116 colon
  TGI: 3.4 µM and 5.71 µM
MALME-3M melanoma
  GI50: 1.83 µM
  TGI: 5.22 µM and 5.75 µM
IGROV1 ovarian
  GI50: 3.08 µM
  TGI: > 69.9 µM and 12.9 µM
RXF 393 renal
  GI50: 0.536 µM
  TGI: 2.6 µM and 3.37 µM
LOX IMVI melanoma
  GI50: 0.688 µM
  TGI: 7.55 µM and 10.5 µM
HOP-18 NSCLC
  TGI: 8.35 µM
BT-549 breast
  TGI: 7.83 µM
ACHN renal
  TGI: 46.1 µM
HCC-2998 colon
  GI50: 1.1 µM
  TGI: 4.56 µM and 7.81 µM
DMS 273 small cell lung
  TGI: 9.1 µM
OVCAR-4 ovarian
  GI50: 11.5 µM
  TGI: 35.1 µM and 18.3 µM
NCI-H226 lung
  GI50: 1.66 µM
  TGI: 5.15 µM and 4.17 µM
K-562 leukemia
  TGI: 19.3 µM and 8.81 µM
M19-MEL melanoma
  TGI: 4.39 µM
HCT-15 colon
  TGI: 63.6 µM and 34 µM
SK-OV-3 ovarian
  GI50: 3.66 µM
  TGI: 17.2 µM and 23.3 µM
MDA-N
  TGI: 6.88 µM
OVCAR-8 ovarian
  GI50: 1.65 µM
  TGI: 52.8 µM and 5.65 µM
HOP-62 NSCLC
  GI50: 1.01 µM
  TGI: 6.38 µM and 5.29 µM
EKVX NSCLC
  GI50: 3.81 µM
  TGI: 15.2 µM and 4.85 µM
NCI-H23 lung
  GI50: 1.93 µM
  TGI: 9.28 µM and 4.6 µM
KM12 colon
  GI50: 2.17 µM
  TGI: 16.6 µM and 8.05 µM
SF-539 CNS
  GI50: 1.19 µM
  TGI: 5.52 µM and 5.55 µM
P388/ADR leukemia
  TGI: 85 µM
M14 melanoma
  TGI: 14.8 µM
SF-268 CNS
  GI50: 1.01 µM
  TGI: 11.1 µM and 12.6 µM
MOLT-4 leukemia
  GI50: 0.647 µM
  TGI: 14.9 µM and 2.23 µM
OVCAR-3 ovarian
  TGI: 10.7 µM and 8.63 µM
MCF7 breast
  GI50: 1.61 µM
  TGI: 21.6 µM and 6.89 µM
DMS 114 small cell lung
  TGI: 4.03 µM
SR leukemia
  TGI: 6.47 µM
A498 renal
  GI50: 1.22 µM
  TGI: 4.04 µM and 5.15 µM
DLD-1 colon
  TGI: 14.9 µM
DU-145 prostate
  TGI: 53.6 µM
SN12C renal
  GI50: 1.41 µM
  TGI: 7.74 µM and 20.9 µM
UACC-62 melanoma
  GI50: 1.35 µM
  TGI: 3.26 µM and 3.56 µM
MDA-MB-231 breast
  TGI: 8.67 µM
SNB-19 CNS
  GI50: 0.632 µM and 1.21 µM
  TGI: 26.6 µM and 14.4 µM
SK-MEL-2 melanoma
  GI50: 0.695 µM
  TGI: 1.93 µM and 2.56 µM
A549 NSCLC
  GI50: 5.48 µM
  TGI: 53 µM and 40.4 µM
SNB-78 CNS
  TGI: 19.3 µM
MDA-MB-435
  TGI: 8.29 µM
NCI/ADR-RES ovarian
  GI50: 26.1 µM
  TGI: 117 µM
SN12K1 renal
  TGI: 3.5 µM
T-47D breast
  TGI: 7.66 µM
HL-60(TB) leukemia
  GI50: 4.08 µM
  TGI: 27.4 µM and 6.95 µM
OVCAR-5 ovarian
  GI50: 6.91 µM
  TGI: 30.8 µM and 15.6 µM
SK-MEL-5 melanoma
  GI50: 1.91 µM
  TGI: 6.38 µM and 4.19 µM
RPMI-8226 leukemia
  GI50: 1.25 µM
  TGI: 15.9 µM and 6.88 µM

## Clc1ccccc1C1=NN(c2ccccc2)C2c3ccccc3OCC12 (stereo not given)
TK-10 renal
  TGI: > 100 µM
XF 498 CNS
  TGI: > 100 µM
SW-620 colon
  TGI: > 100 µM
SK-MEL-28 melanoma
  TGI: > 100 µM
COLO 205 colon
  TGI: > 100 µM
UACC-257 melanoma
  TGI: > 100 µM
NCI-H460 lung
  TGI: > 100 µM
U251 CNS
  TGI: > 100 µM
HT29 colon
  TGI: > 100 µM
SF-295 CNS
  TGI: > 100 µM
786-0 renal
  TGI: > 100 µM
HOP-92 NSCLC
  TGI: > 100 µM
NCI-H522 lung
  TGI: > 100 µM
KM20L2 colon
  TGI: > 100 µM
CCRF-CEM leukemia
  TGI: > 100 µM
SNB-75 CNS
  TGI: > 100 µM
UO-31 renal
  TGI: > 100 µM
HCT-116 colon
  TGI: > 100 µM
MALME-3M melanoma
  TGI: > 100 µM
IGROV1 ovarian
  TGI: > 100 µM
RXF 393 renal
  TGI: > 100 µM
LOX IMVI melanoma
  TGI: > 100 µM
HOP-18 NSCLC
  TGI: > 100 µM
ACHN renal
  TGI: > 100 µM
HCC-2998 colon
  TGI: > 100 µM
DMS 273 small cell lung
  TGI: > 100 µM
K-562 leukemia
  TGI: > 100 µM
M19-MEL melanoma
  TGI: > 100 µM
SK-OV-3 ovarian
  TGI: > 100 µM
OVCAR-8 ovarian
  TGI: > 100 µM
HOP-62 NSCLC
  TGI: > 100 µM
EKVX NSCLC
  TGI: > 100 µM
NCI-H23 lung
  TGI: > 100 µM
KM12 colon
  TGI: > 100 µM
SF-268 CNS
  TGI: > 100 µM
MOLT-4 leukemia
  TGI: > 100 µM
OVCAR-3 ovarian
  TGI: > 100 µM
DMS 114 small cell lung
  TGI: > 100 µM
A498 renal
  TGI: > 100 µM
DLD-1 colon
  TGI: > 100 µM
SNB-19 CNS
  TGI: > 100 µM
LXFL 529 NSCLC
  TGI: > 100 µM
SK-MEL-2 melanoma
  TGI: > 100 µM
A549 NSCLC
  TGI: > 100 µM
SNB-78 CNS
  TGI: > 100 µM
RXF-631 renal
  TGI: > 100 µM
HL-60(TB) leukemia
  TGI: > 100 µM
OVCAR-5 ovarian
  TGI: > 100 µM
SK-MEL-5 melanoma
  TGI: > 100 µM
RPMI-8226 leukemia
  TGI: > 100 µM
